Experiments:
human TLR8 = biological target: T1, human TLR8 (Homo sapiens, UniProt Q9NR97); assay: TLR7/8-NF-κB reporter assay (HEK-TLR8, SEAP); format: cell-based; details: HEK-TLR8 cells, 24 hrs, read-out: EC50 of TLR8 (mean ± SD)
T1 construct: host or cells: HEK (HEK293) cells with NF-kB-responsive SEAP reporter
T1 sequence (Q9NR97 27-1041): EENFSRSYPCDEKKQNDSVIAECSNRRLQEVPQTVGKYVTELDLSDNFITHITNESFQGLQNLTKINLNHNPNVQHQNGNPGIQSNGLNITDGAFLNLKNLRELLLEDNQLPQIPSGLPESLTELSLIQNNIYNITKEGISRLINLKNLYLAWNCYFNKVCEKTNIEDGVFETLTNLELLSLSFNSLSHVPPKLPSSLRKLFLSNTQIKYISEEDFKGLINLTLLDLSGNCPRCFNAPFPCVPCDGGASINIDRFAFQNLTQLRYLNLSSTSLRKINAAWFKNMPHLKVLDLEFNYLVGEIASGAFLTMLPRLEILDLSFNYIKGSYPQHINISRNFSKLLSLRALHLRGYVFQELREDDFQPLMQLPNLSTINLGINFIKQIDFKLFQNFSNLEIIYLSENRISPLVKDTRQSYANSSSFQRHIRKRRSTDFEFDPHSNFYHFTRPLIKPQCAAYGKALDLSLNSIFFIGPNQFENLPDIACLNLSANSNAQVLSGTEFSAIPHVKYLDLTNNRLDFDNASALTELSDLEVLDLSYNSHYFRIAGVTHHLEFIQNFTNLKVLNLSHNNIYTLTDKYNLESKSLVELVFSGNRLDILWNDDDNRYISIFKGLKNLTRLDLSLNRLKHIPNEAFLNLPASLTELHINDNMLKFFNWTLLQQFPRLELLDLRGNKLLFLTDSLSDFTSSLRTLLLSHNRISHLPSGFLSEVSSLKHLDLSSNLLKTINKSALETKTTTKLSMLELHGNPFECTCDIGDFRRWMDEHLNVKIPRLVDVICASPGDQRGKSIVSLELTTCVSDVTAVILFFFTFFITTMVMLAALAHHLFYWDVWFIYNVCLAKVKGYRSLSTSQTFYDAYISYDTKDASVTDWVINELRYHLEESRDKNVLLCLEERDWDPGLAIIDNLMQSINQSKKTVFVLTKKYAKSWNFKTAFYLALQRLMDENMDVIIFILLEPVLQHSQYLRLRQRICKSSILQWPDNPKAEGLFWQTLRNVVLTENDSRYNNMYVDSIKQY
Description: (§1) Human embryonic kidney (HEK) cells that were stably transfected with human TLR7 or TLR8 and an NF-κB—responsive secreted embryonic alkaline phosphatase (SEAP) gene (HEK-TLR7/8) were purchased from InvivoGen (San Diego, Calif.). The procedure used to measure TLR7 or TLR8 agonist activity was conducted as described by Hood et al. (Hood J. D, et al., Human Vaccines, 2010, 6, 4, 322-335). Briefly, HEK-TLR7/8 cells were stimulated with 3.3 or 30 μM of compound in a 96-well plate in DMEM containing 10% FBS and 0.01% Normocin (InvivoGen) for 24 hrs. Twenty microliters of the supernatant from each well was incubated with Quanti-blue substrate solution (InvivoGen) at 37° C. for 1 hour and absorbance was read at 650 nm using a Synergy plate reader (Biotek, Winooski, Vt.).

human TLR7 = biological target: T2, human TLR7 (Homo sapiens, UniProt Q9NYK1); assay: TLR7/8-NF-κB reporter assay (HEK-TLR7, SEAP); format: cell-based; details: HEK-TLR7 cells, 24 hrs; for EC50: read-out: EC50 of TLR7 (mean ± SD)
T2 construct: host or cells: HEK (HEK293) cells with NF-kB-responsive SEAP reporter
T2 sequence (Q9NYK1 27-1049): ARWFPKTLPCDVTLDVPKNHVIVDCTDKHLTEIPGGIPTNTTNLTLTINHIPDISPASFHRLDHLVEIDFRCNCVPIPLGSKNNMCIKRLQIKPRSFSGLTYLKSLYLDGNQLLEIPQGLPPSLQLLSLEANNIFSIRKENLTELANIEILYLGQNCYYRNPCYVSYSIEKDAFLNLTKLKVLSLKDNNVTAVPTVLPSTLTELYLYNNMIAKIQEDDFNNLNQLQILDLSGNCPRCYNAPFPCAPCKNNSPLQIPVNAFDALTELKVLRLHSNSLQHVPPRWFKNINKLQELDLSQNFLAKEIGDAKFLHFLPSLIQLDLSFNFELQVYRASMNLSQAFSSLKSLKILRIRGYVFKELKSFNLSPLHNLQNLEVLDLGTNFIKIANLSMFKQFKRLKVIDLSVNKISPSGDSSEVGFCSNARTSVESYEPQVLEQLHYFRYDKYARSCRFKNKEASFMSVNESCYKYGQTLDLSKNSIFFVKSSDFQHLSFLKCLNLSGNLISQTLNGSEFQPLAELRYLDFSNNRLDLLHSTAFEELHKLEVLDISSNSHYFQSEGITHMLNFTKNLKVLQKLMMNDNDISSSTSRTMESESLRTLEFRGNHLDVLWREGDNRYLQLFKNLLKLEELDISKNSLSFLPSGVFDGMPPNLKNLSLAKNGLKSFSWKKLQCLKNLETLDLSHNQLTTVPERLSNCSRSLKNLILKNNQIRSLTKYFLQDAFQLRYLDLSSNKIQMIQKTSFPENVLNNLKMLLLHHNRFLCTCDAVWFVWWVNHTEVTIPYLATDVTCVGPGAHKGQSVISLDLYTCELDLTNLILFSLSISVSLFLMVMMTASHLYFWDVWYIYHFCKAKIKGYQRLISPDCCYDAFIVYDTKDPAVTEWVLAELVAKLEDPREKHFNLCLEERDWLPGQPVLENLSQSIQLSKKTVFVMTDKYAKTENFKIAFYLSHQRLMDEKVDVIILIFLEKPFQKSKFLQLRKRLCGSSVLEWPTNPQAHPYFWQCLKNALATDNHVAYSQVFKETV
Description: as §1

SMILES	EC50 (human TLR8) [µM]	EC50 (human TLR7) [µM]	EC50 of TLR7 (mean ± SD) (human TLR7)
CCCCCc1nc2c(N)nc3cc(C(=O)OC)ccc3c2n1CC(C)(C)O [Compound 527, 4-Amino-1-(2-hydroxyl-2-methylpropyl)-7-methoxy carbonyl-2-pentyl-1H-imidazo[4,5-c]quinoline]	7.15 ± 0.29	2.6 ± 0.18	–
CCCCc1nc2c(N)nc3cc(C(=O)OCC)ccc3c2n1CC(C)O (centres unmarked) [Compound 531, 4-Amino-2-butyl-1-(2-hydroxypropyl)-7-ethoxycarbonyl-1H-imidazo[4,5-c]quinoline]	4.73 ± 0.55	5.23 ± 0.16	–
COC(=O)c1ccc2c(c1)nc(N)c1ncn(CC(C)(C)O)c12 [Compound 421, 4-amino-1-(2-hydroxy-2-methylpropyl)-7-methoxycarbonyl-1H-imidazo[4,5-c]quinoline]	–	–	NO EC50
CCOC(=O)c1ccc2c(c1)nc(N)c1ncn(CC(C)C)c12 [Compound 511, 4-Amino-7-ethoxycarbonyl-1-(2-methylpropyl)-1H-imidazo[4,5-c]quinoline]	–	7.92 ± 1.49	–
CCCc1nc2c(N)nc3cc(C(=O)OC)ccc3c2n1CC(C)(C)O [Compound 518, 4-amino-1-(2-hydroxy-2-methylpropyl)-7-methoxycarbonyl-2-propyl-1H-imidazo[4,5-c]quinoline]	–	23.8 ± 4.34	–
CCCCc1nc2c(N)nc3cc(C(=O)OC(C)C)ccc3c2n1CC(C)(C)O [Compound 526]	17.2 ± 5.33	3.94 ± 0.25	–
CCCCc1nc2c(N)nc3cc(C(=O)OC(C)C)ccc3c2n1CC(C)O (centres unmarked) [Compound 530, 4-Amino-2-butyl-1-(2-hydroxypropyl)-7-isopropoxycarbonyl-1H-imidazo[4,5-c]quinoline]	5.82 ± 0.2	2.5 ± 0.15	–
CCCCc1nc2c(N)nc3cc(C(=O)OC)ccc3c2n1CCOCc1ccccc1 [Compound 520, 4-Amino-1-(2-(benzyloxy)ethyl)-2-butyl-7-methoxycarbonyl 1H-imidazo[4,5-c]quinoline]	31 ± 10.6	2.42 ± 0.19	–
CCCCc1nc2c(N)nc3cc(C(=O)OC)ccc3c2n1CCOC [Compound 521, 4-Amino-2-butyl-1-(2-methoxyethyl)-7-methoxycarbonyl-1H-imidazo[4,5-c]quinolone]	–	5.67 ± 0.81	–
CCCCc1nc2c(N)nc3cc(C(=O)OCC)ccc3c2n1CC(C)(C)O [Compound 525, 4-Amino-2-butyl-1-(2-hydroxyl-2-methylprop-yl)-7-ethoxycarbonyl-1H-imidazo[4,5-c]quinoline]	19.9 ± 1.04	2.21 ± 0.44	–
COC(=O)c1ccc2nc(N)c3ncn(CC(C)C)c3c2c1 [Compound 504, 4-amino-1-isobutyl-8-methoxycarbonyl-1H-imidazo[4,5-c]quinoline]	21.2 ± 19.9	21.2 ± 5.22	–
COC(=O)c1ccc2c(c1)nc(N)c1nc(C)n(CC(C)(C)O)c12 [Compound 516, 4-amino-1-(2-hydroxy-2-methylpropyl)-7-methoxycarbonyl-2-methyl-1H-imidazo[4,5-c]quinoline]	–	49.2 ± 17.3	–
COCCc1nc2c(N)nc3cc(C(=O)OC)ccc3c2n1CC(C)O (centres unmarked) [Compound 536, 4-Amino-1-(2-hydroxypropyl)-2-(2-methoxyethyl)-7-carboxylate-1H-imidazo[4,5-c]quinoline]	31.7 ± 1.54	20.2 ± 4.11	–
CCCCc1nc2c(N)nc3cc(C(=O)OC)ccc3c2n1CCO [Compound 529, 4-Amino-2-butyl-1-(2-hydroxyethyl)-7-methoxycarbonyl-1H-imidazo[4,5-c]quinoline]	4.41 ± 0.49	22.9 ± 5.28	–
COC(=O)c1ccc2c(c1)nc(N)c1nc(Cc3ccccc3)n(CC(C)(C)O)c12 [Compound 535, 4-Amino-2-benzyl-1-(2-hydroxyl-2-methylprop-yl)-7-methoxycarbonyl-1H-imidazo[4,5-c]quinoline]	–	4.79 ± 0.46	–
CCc1nc2c(N)nc3cc(C(=O)OC)ccc3c2n1CC(C)(C)O [Compound 517, 4-amino-2-ethyl-1-(2-hydroxy-2-methylpropyl)-7-methoxycarbonyl-1H-imidazo[4,5-c]quinoline]	–	29.1 ± 4.33	–
COC(=O)c1ccc2c(c1)nc(N)c1ncn(Cc3ccccc3)c12 [Compound 422, 4-amino-1-benzyl--7-methoxycarbonyl-1H-imidazo[4,5-c]quinoline]	–	–	NO EC50

Reference: patent US9034336B2, “Immunomodulators and immunomodulator conjugates” (Regents of the University of Minnesota, priority 2011, dated 2015)
